Assay results taken from patent publication US10576456B2, “Systems and methods of preparing stabilized lipid assemblies” (ARIZONA BOARD OF REGENTS ON BEHALF OF THE UNIVERSITY OF …, priority 2014, dated 2020).

Key:
[1] = Frontal chromatography retention on bare silica; format: physicochemical; details: PBS pH 7.4, 1 μL min^−1, 100 μM sample
Experimental: (§1) Particles were packed in capillaries (50 μm or 75 μ[…].; Polymicro Technologies, Phoenix, Ariz.) against Microtight filter assemblies (Upchurch Scientific, Oak Harbor, Wash.). […] Frontal chromatography was performed using a lab-built instrument. Isocratic elution with PBS, pH 7.4, as the mobile phase utilized pressure driven flow that was applied by a Micropro Syringe Pumping System (Eldex, Napa, Calif.) connected to a […] injection valve (Valco, Houston, Tex.) with a 600 nL sample loop. […] The elution profile was monitored by ultraviolet absorbance detection (Model 500 Detector, ChromTech, Apple Valley, Minn.) at 220 nm. Signal from the detector was collected with an A/D converter (NI USB-6221, National Instruments, Austin, Tex.) and software written in LabVIEW (National Instruments). […] Statistical significance was determined using the two-tailed Student's t-test.

[2] = Frontal chromatography retention on poly(bis-SorbPC)-coated silica; format: physicochemical; details: PBS pH 7.4, 1 μL min^−1, 100 μM sample
Experimental: as §1

[3] = TIRFM measurement of Alexa 488-CTB binding to GM1 in polymerized bis-SorbPC PSLB; details: 1 mol % GM1; 1 h static incubation
Experimental: Phosphate buffered saline (PBS) was used to measure the background. Alexa 488-CTB solutions (500 μL) were then injected into the flow cell, sequentially from the lowest concentration to the highest. One hour of static incubation after each injection, the fluorescent signal from GM1-bound Alexa 488-CTB was then measured. The fluorescent signal from dissolved Alexa 488-CTB was negligible so the dissolved protein solution was not flushed from the cell before each measurement. The solid line is a fit of the data to the Hill equation.
CTB labeled with Alexa Fluor 488 (Alexa 488-CTB) was purchased from Invitrogen (Eugene, Oreg.). Total internal reflection fluorescence microscopy (TIRFM) was used to measure the binding of Alexa 488-CTB to 1 mol % GM1 in a polymerized bis-SorbPC PSLB. The TIRFM system has been described previously. The 488 nm line of an Ar^+ laser (Ion Laser Technology) was coupled into a fused silica slide using a 45° prism (Edmund Optics). […] One of the internal reflections at the upper surface of the slide was used to excite fluorescence from Alexa 488-CTB bound to the PSLB. The fluorescence signal was collected using a 4× objective, directed through a 535DF35 (Omega Optical, Brattleboro, Vt.) band pass filter, and detected using CCD (Andor Technology USA, South Windsor, Conn.).

Compound: CC(=O)Oc1ccccc1C(=O)O [Acetylsalicylic acid]
- Retention time [1]: 10.1 ± 0.2 min
- Retention time [2]: 14.6 ± 0.6 min

Compound: O=C(O)c1ccccc1 [Benzoic acid]
- Retention time [1]: 9.6 ± 0.2 min
- Retention time [2]: 14.1 ± 0.1 min

Compound: O=C(O)c1ccccc1O [Salicylic acid]
- Retention time [1]: 9.7 ± 0.1 min
- Retention time [2]: 14.3 ± 0.1 min

Compound: Alexa 488-CTB: CTB labeled with Alexa Fluor 488
- dissolved concentration that saturates the PSLB [3]: approximately 0.1 μM
